# How the values were obtained:
# [1] = target: T1, 20S eukaryotic proteasome (Oryctolagus cuniculus, UniProt G1T4Q9); test: Inhibition of chymotrypsin-like activity of purified eukaryotic 20S proteasome (Suc-Leu-Leu-Val-Tyr-AMC); format: biochemical, rabbit; conditions: for IC50: chymotrypsin-like activity, rabbit 20S proteasome
# T1 construct: purchased BOSTON BIOCHEM (Cambridge, Mass.)
# T1 sequence (G1T4Q9 1-263): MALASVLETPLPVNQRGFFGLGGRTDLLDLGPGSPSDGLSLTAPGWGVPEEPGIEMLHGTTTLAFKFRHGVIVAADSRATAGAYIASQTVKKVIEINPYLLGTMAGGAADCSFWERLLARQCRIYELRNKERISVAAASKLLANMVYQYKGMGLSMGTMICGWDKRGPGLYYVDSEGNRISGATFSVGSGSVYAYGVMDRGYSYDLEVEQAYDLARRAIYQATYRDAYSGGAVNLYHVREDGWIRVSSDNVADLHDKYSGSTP
# Summary of the method: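 Purified rabbit 20S proteasome (0.02 μg) incubated with 20 μM Suc-LLVY-AMC for 30 min at 37° C in Tris-HCl pH 7.5, with or without compound. Chymotrypsin-like activity read as released AMC fluorescence (Ex 380 or 355 nm/Em 460 nm).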
# VA-13 cells = test: Western blot of p27 in SV40-transformed VA-13 fibroblasts; format: cell-based, human; conditions: 25 μM
# Procedure: Cell Culture, Cell Extract Preparation, and Western Blot Assay. Human leukemia Jurkat T and prostate cancer LNCaP cells were cultured in RPMI 1640 medium supplemented with 10% fetal calf serum, 100 units/ml of penicillin, and 100 μg/ml streptomycin. Human immortalized, non-transformed NK cells (YT cell line) (38) were cultured in RPMI 1640 supplemented with 1 mM MEM sodium pyruvate solution, 0.1 mM MEM non-essential amino acids solution, 10% fetal calf serum. 100 units/ml penicillin, and 100 μg/ml streptomycin. Normal (WI-38) and simian virus 40 (SV40)-transformed (VA-13) human fibroblasts were grown in Dulbecco's modified Eagle's medium supplemented with 10% fetal calf serum, 100 units/ml of penicillin and 100 μg/ml of streptomycin. All cells were maintained at 37° C. in a humidified incubator with an atmosphere of 5% CO2. A whole cell extract was prepared in accordance with An et al. (An, B. et al. Cell Death Differ, 1998, 5:1062-75). Briefly, cells were harvested, washed with PBS twice, and homogenized in a lysis buffer [50 mM Tris-HCl (pH 8.0), 5 mM EDTA, 150 mM NaCl, 0.5% NP-40, 0.5 mM phenylmethylsulfonyl fluoride, and 0.5 mM dithiothreitol] for 30 min at 4° C. Afterwards, lysates were centrifuged at 12,000×g for 15 min at 4° C., and the supernatants were collected as whole cell extracts. Equal amounts of protein extract (60 μg) were resolved by SDS-polyacrylamide gel electrophoresis and transferred to a nitrocellulose membrane using a Semi-Dry Transfer system (BIO-RAD, Hercules, Calif.). Jurkat T, LNCaP, or DU-145 cells were treated with various concentrations of synthetic or natural tea polyphenols for indicted hours. The enhanced chemiluminescence (ECL) Western blot analysis was then performed using specific antibodies to the proteins of interest (p^27kip, IκB-α, PARP, Bax or actin). The ratio of p27 or IκB-α to the corresponding actin was determined by scanning intensities of the protein bands.
# Normal WI-38 and SV40-transformed VA-13 cell lines were treated with 25 μM of (−)-EGCG, (−)-EGCG-amide, (+)-EGCG, (+)-EGCG-amide, or GTP-1 for either 12 hours or 36 hours.
Compound,IC50 [1] [µM],levels of p27 protein (VA-13 cells; 12 hours),"reversal of proteasome inhibition by SDS ([1]; 1 μM, 0.01% SDS added after 1 hour (SDS-post))","inhibition of chymotrypsin-like activity ([1]; 1 μM, 5 min) [%]","inhibition of chymotrypsin-like activity ([1]; 1 μM, 30 min) [%]","inhibition of chymotrypsin-like activity ([1]; 1 μM, after 1 to 3 hours)","inhibition of chymotrypsin-like activity ([1]; 1 μM, no SDS)","inhibition of chymotrypsin-like activity ([1]; 1 μM, pre-incubation with 0.01% SDS for 1 hour (SDS-pre))",levels of p27 protein (VA-13 cells; 36 hours)
"O=C(OC1Cc2c(O)cc(O)cc2OC1c1cc(O)c(O)c(O)c1)c1cc(O)c(O)c(O)c1 (single isomer, unassigned; (+)) [(+)-EGCG]",0.17,significantly increased levels of p27 protein,–,–,–,–,–,–,–
"O=C(OC1Cc2c(O)cc(O)cc2OC1c1cc(O)c(O)c(O)c1)c1cc(O)c(O)c(O)c1 (single isomer, unassigned; (+)) [(+)-GCG]",0.27,–,–,–,–,–,–,–,–
"O=C(O[C@@H]1Cc2c(O)cc(O)cc2O[C@@H]1c1cc(O)c(O)c(O)c1)c1cc(O)c(O)c(O)c1 [(−)-EGCG, (−)-epigallocatechin-3-gallate, reference compound]",0.205,significantly increased levels of p27 protein,could not reverse the EGCG-mediated proteasome inhibition,35,62,70-80%,up to 75%,10-20%,accumulated p27 levels
"O=C(N[C@@H]1Cc2c(O)cc(O)cc2O[C@@H]1c1cc(O)c(O)c(O)c1)c1cc(O)c(O)c(O)c1 [(−)-EGCG-amide, (−)-[2R,3R]-N-[5,7-Dihydroxy-2-(3,4,5-trihydroxyphenyl)-chroman-3-yl]-3,4,5-trihydroxybenzamide]",0.32,significantly increased levels of p27 protein,–,–,–,–,–,–,–

# — patent US9399631B2, “Polyphenol proteasome inhibitors, synthesis, and methods of use” (UNIVERSITY OF SOUTH FLORIDA, priority 2003, dated 2016)
